Reference: patent publication US7803757B2, “Peptides based on the sequence of human lactoferrin and their use” (PharmaSurgics in Sweden AB, priority 1998, dated 2010)
Converted amounts (≈) assume the structure as drawn. Peptide text beside a SMILES is read from it. * marks the point of attachment. Acm = CC(=O)NC*

Assays:
Type in all cases: cell-based
[1] = system: LPS-induced IL-6 response in a monocytic cell line (THP-1); experiment: inhibition of LPS-induced IL-6 response in THP-1 cells (Example 5); details: agent added 30 minutes after LPS
Procedure: In this example an in vitro test was performed to study the anti-inflammatory activity of the peptides according to the invention. More precisely, the inhibitory effect of the peptides according to the invention on the LPS-induced IL-6 response in a monocytic cell line (THP-1) was studied and compared to the effect of human lactoferrin by use of the method described by I. Mattsby-Baltzer et al., Pediatr. Res. 40:257-262, 1996. The IL-6 response in the THP-1 cells was induced by addition of LPS. hLF, peptide 3 and peptide 4, respectively, were added 30 minutes after LPS.

C. glabrata = experiment: fungicidal activity MMC99%, C. glabrata (Example 27); details: BHI diluted 1/100 (Table 23)
Procedure: (§1) In the examples, the minimal microbicidal concentrations (MMC) and minimal inhibitory concentrations (MIC) were determined as follows, unless otherwise specified in the examples. Bacterial or fungal strains were cultured in BHI medium over night at 37° C. A volume of the culture was transferred to a new tube with BHI and incubated for two more hours. Thereafter the cells were spun down and the pellet was suspended in BHI medium diluted 1/100 (1% BHI). The concentration of bacterial or fungal cells was spectrophotometrically determined at 650 nm. The microbial concentrations were also determined by viable counts. Peptides serially diluted in 1% BHI by twofold or tenfold steps were added in triplicate to the wells of a microtiterplate (200 μl per well). The bacterial or fungal cell solutions were added in 10 μl volumes to give a final concentration of approximately 1-5×10^5 cells per ml in the well. The microplate was incubated at 37° C. in a humid chamber for two hours. Thereafter 5 μl was taken from each well and added as a drop onto a blood agar plate and incubated over night at 37° C. The microplate was incubated for another 20 hours at 37° C. and thereafter analysed spectrophotometrically at 650 nm in a microplate reader (Emax, Molecular Devices, USA). The concentration of peptide causing a 99% reduction of the inoculum after 2 hours of incubation was defined as the MMC99%. The MIC value was defined as the concentration giving no increase in the absorbance value above the background level after 20 hours of incubation.
In this example the fungicidal activity of three of the peptides according to the invention was studied, and tested against three different fungi. The fungi were incubated in BHI medium diluted 1/100. The concentration of each peptide needed to kill 99% of the fungi (MMC99%) was determined.

E. coli O14 [2] = experiment: bactericidal and growth inhibitory activity, E. coli O14 (Example 9)
Procedure: E. coli O14 was incubated as described above in the presence of the peptides during 2 hours. The bactericidal activity was measured in the same way as described above.
The inhibition of growth was measured spectrophotometrically after incubation during 20 hours.

C. albicans [3] = experiment: microbe, parasite or virus in culture
Procedure: as §1
Also in this example one of the peptides according to the invention—this time the peptide with SEQ. ID. NO. 4, was compared to a conventional fungicide, amphotericin. The antifungal activity against C. albicans was studied. Twofold serial dilutions with a starting concentration of 20 μg/ml were used. BHI diluted 1/100 was used as growth medium.

C. albicans [4] = experiment: concentration for killing of 99% of C. albicans at different pH (Example 13, FIG. 2); details: FIG. 2, different pH
Description: In this example the concentrations needed of three peptides according to the invention for killing of 99% of C. albicans at different pH was compared to a reference peptide. The peptides according to the invention were peptide 2 (linear), peptide 3 (cyclic), peptide 4 (linear), peptide 5 (cyclic) and peptide 7 (lactam bridged), all capped. The reference peptides used were an uncapped cyclic form and an uncapped linear form of a Morinaga peptide, Morinaga 24 and 25. The results are illustrated in FIG. 2.

Candida krusei = experiment: fungicidal activity against Candida krusei strains (Example 4); details: Exp. I
Procedure: In this example the fungicidal activity of the peptides according to the invention was tested and compared to the fungicidal activity of human lactoferrin. Different concentrations of hLF, peptide 3 and peptide 4 were incubated with different strains of Candida albicans and Candida krusei during 1-2 hours at 37° C. in 0.05 mM KCl at pH 7.0 at two different occasions—experiment I and II, respectively. After incubation samples were taken for plating on Saboroud plates.

multiresistant S. aureus = experiment: bactericidal activity, multiresistant S. aureus (Example 18); details: multiresistant S. aureus 5.0×10^5 per ml
Procedure: In this example the bactericidal activity of two of the peptides according to the invention was studied in a test with a multiresistant S. aureus. A bacterial solution with a concentration of 5.0×10^5 S. aureus bacterial per ml was used. The concentration of each peptide needed to kill 99% of the bacteria (MMC99%) was determined after 2 hours and after 24 hours of incubation at 37° C.

C. neoformans = experiment: fungicidal activity MMC99%, C. neoformans (Example 27); details: BHI diluted 1/100 (Table 23)
Procedure: as §1, with “The bacterial or fungal cell solutions were added in 10 μl volumes to give a final concentration of approximately 1-5×10^5 cells per ml in the well. The microplate was incubated at 37° C. in a humid chamber for two hours. Thereafter 5 μl was taken from each well and added as a drop onto a blood agar plate and incubated over night at 37° C.” left out, “The concentration of peptide causing a 99% reduction of the inoculum after 2 hours of incubation was defined as the MMC99%.” left out
In this example the fungicidal activity of three of the peptides according to the invention was studied, and tested against three different fungi. […] The concentration of each peptide needed to kill 99% of the fungi (MMC99%) was determined.

E. coli O14 [5] = experiment: bactericidal activity against E. coli O14, comparison with EP-A-0 629 347 peptides (Example 7); details: E. coli O14, II: serial dilutions of twofold steps
Procedure: In this example an in vitro test was performed to compare the bactericidal and fungicidal activity of the peptides according to the invention with peptides described in EP-A-0 629 347. The peptide according to the invention used was peptide 4, and the peptides according to EP-A-0 629 347 called Morinaga 10, Morinaga 11, Morinaga 12, and Morinaga 13.
The peptides were incubated with E. coli O14 and Candida albicans. Two concentrations of C. albicans yeast cells were tested, 5·10^6 and 5·10^3 per ml. Different concentrations of the peptides were tested.
After the incubation, samples were taken for bacterial plating. Serial dilutions of tenfold steps were used in the experiments marked with I in table 5 and of twofold steps in the experiments marked with II.

CC[C@H](C)[C@H](NC(=O)[C@H](CSCNC(C)=O)NC(=O)[C@H](CO)NC(=O)[C@@H](NC(=O)[C@@H]1CCCN1C(=O)[C@@H]1CCCN1C(=O)CNC(=O)[C@H](CCCNC(=N)N)NC(=O)[C@@H](NC(=O)[C@H](CCCCN)NC(=O)[C@H](CCCNC(=N)N)NC(=O)[C@H](CCSC)NC(=O)[C@H](CC(N)=O)NC(=O)[C@H](CCCNC(=N)N)NC(=O)[C@H](CCC(N)=O)NC(=O)[C@H](Cc1c[nH]c2ccccc12)NC(=O)[C@H](CCC(N)=O)NC(=O)[C@H](Cc1ccccc1)NC(=O)[C@H](CSCNC(C)=O)NC(=O)[C@H](CCCCN)NC(=O)[C@@H](NC(C)=O)[C@@H](C)O)C(C)C)C(C)C)C(=O)N[C@@H](CCCCN)C(=O)N[C@@H](CCCNC(=N)N)C(N)=O [Peptide 4] (Ac-TKC(Acm)FQWQRNMRKVRGPPVSC(Acm)IKR-NH2)
% inhibition of LPS response ([1]; IL-6 response in THP-1 cells): 39% | inhibitory activity on the LPS-induced IL-6 response (in words) ([1]; THP-1 cells): significant inhibition | MMC99% (C. glabrata): >50 | Concentration of agent for 100% killing (E. coli O14 [2]; E. coli O14, 2 hours): 12.5 µg/mL | Concentration of agent for inhibition of growth (E. coli O14 [2]; E. coli O14, spectrophotometrically after 20 hours): 3.1 µg/mL | MIC (C. albicans [3]): 5.0 µg/mL (≈ 1.67 µM) | MMC99% (C. albicans [3]; C. albicans, BHI diluted 1/100, twofold dilutions from 20 μg/ml): 5.0 µg/mL | concentration needed for killing of 99% of C. albicans, compared with the capped cyclic peptides (in words) (C. albicans [4]): better effects than the capped cyclic peptides | ratio hLF/pep. (concentration for 99% killing) (Candida krusei; C. krusei CCUG 969): 10 | Concentration of agent for 99% killing (Candida krusei; C. krusei CCUG 969, 0.05 mM KCl pH 7.0): 2.5 µg/mL | ratio hLF/pep. (concentration for 99% killing) (Candida krusei; C. krusei CCUG 35849): 10 | Concentration of agent for 99% killing (Candida krusei; C. krusei CCUG 35849, 0.05 mM KCl pH 7.0): 1.25 µg/mL | MMC99% (multiresistant S. aureus; 2 hours at 37° C.): 5.0 µg/mL | MMC99% (multiresistant S. aureus; 24 hours at 37° C.): ≦0.32 μg/ml | MMC99% (C. neoformans): ≦3.1 | Concentration of agent for 100% killing (E. coli O14 [5]): 12 µg/mL
